Measured values from PubChem BioAssay AID504322 (Emory University Molecular Libraries Screening Center, 2011).
The source made the active and inactive calls. No rule for the calls is given here.

Each compound was assayed on CHOP reporter cell assay, percent of control (assay: CHOP reporter inhibitor potency, dose response, cell-based (AID 504322);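 also: CHO cells carrying a CHOP reporter stimulated with tunicamycin to induce ER stress; potency is for inhibition of the stress-induced reporter signal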).

Row | Compound | IC50
1 | Cc1ccc(/C=C2\SC(=S)N(CCCC(=O)Nc3ccc(O)cc3)C2=O)cc1 | 0.17 µM
2 | Cc1nc(Nc2nc(CSc3nc4ccccc4[nH]3)cc(=O)[nH]2)nc2ccccc12 | 5.68 µM (inactive)
3 | C#CC(=O)N(c1cccc(OC)c1)C(C(=O)NC1CCCC1)c1cccs1 (stereo unspecified) | 4.53 µM
4 | CC1CCC(C(C)C)C(OCC(O)CN2CCN(Cc3ccccc3)CC2)C1 (stereo unspecified) | 7 µM (inactive)
5 | COc1ccc(C(C(=O)NC2CCCCC2)N(C(=O)CCl)c2cccc(Cl)c2)cc1 (stereo unspecified) | 9.57 µM (inactive)
6 | Nc1nc(-c2ccccc2)c(N=Nc2ccccc2Cl)s1 | 8.65 µM (inactive)
7 | CCCCn1c(/N=C/c2c[nH]c3ccccc23)nc2ccccc21 | 6.06 µM (inactive)
8 | COc1cc(/C=C/c2nc(N)nc(-c3ccccc3O)n2)cc(OC)c1OC | > 10 µM (inactive)
9 | CCN1/C(=C/C=C/C=C/c2sc3ccccc3[n+]2CC)Sc2ccccc21 | 0.87 µM (inactive)
10 | COc1ccc(N=CC2=C(O)c3ccccc3C2=O)c(OC)c1 | 6.53 µM (inactive)
11 | CC(C)CCn1c(=O)c(C(=O)N/N=C/c2cccc(F)c2)c(O)c2ccccc21 | 2.97 µM
12 | CC1CN(S(=O)(=O)c2ccc(C(=O)Nc3nc(-c4cc5ccccc5o4)cs3)cc2)CC(C)O1 (stereo unspecified) | 9.56 µM (inactive)
13 | CCCCCCCCCCCCCCCC[n+]1cccc2ccccc21 | 0.41 µM
14 | CNC(=O)c1nnsc1S(=O)(=O)c1ccc(Cl)cc1 | 4.03 µM
15 | COc1ccc(Cn2c(SCc3ccccc3C)nc3cc(OC)c(OC)cc3c2=N)cc1 | 8.86 µM (inactive)
16 | Cc1cc(C(=O)CCl)c(C)n1-c1cccc(S(=O)(=O)N2CCOCC2)c1 | > 10 µM (inactive)
17 | CCOc1cc(NC(=S)NCC(C)C)c(OCC)cc1NC(=O)c1cccs1 | > 10 µM (inactive)
18 | CC(C)(C)c1cc(-c2csc(Nc3ccccc3)[n+]2Cc2ccc(C(=O)O)cc2)cc(C(C)(C)C)c1O | 9.46 µM (inactive)
19 | C=CCn1c(SCC(=O)c2[nH]c(C)c(C(=O)OC)c2C)nc2scc(-c3ccc(OC)c(OC)c3)c2c1=O | 6.22 µM (inactive)
20 | Cc1ccc(NC(=O)c2ccc(C#CC3(O)CCCCC3)cc2)cc1C | > 10 µM (inactive)
21 | C=CCOC(=O)C1=C(C)NC(C)=C(C(=O)OCC=C)C1/C=C/c1ccccc1 | 5.02 µM (inactive)
22 | Cn1cnc([N+](=O)[O-])c1S(=O)(=O)c1cccc(Cl)c1 | 8.11 µM (inactive)
23 | Cc1cccc(NS(=O)(=O)c2ccc(C3CCCCC3)cc2)c1 | 6.93 µM (inactive)
24 | CCCOC(=O)c1ccc(Oc2c(-c3ccc(OCC)cc3O)n[nH]c2C)cc1 | 2.34 µM

Row | Compound | IC50
25 | O=C(CNC1CCCCCC1)Nc1ccccc1N1CCCCC1 | 7.73 µM (inactive)
26 | CCN(CC)CCOC(=O)c1ccc(N/C=C(/C#N)c2nc(-c3cccc(OC)c3)cs2)cc1 | 9.3 µM (inactive)
27 | O=C(N/N=C/c1cccc(F)c1)c1c(O)c2ccccc2[nH]c1=O | 6.48 µM (inactive)
28 | CCOc1cc(/C=C\[N+](=O)[O-])ccc1OCC(=O)Nc1ccccc1C | 4.96 µM (inactive)
29 | CC(C)c1ccc(C2C3CSCC=C3C(C#N)=C(N)C2(C#N)C#N)cc1 (stereo unspecified) | 9.55 µM (inactive)
30 | N#C/C(=C\c1ccc([N+](=O)[O-])o1)C(=O)Nc1ccc(F)cc1 | > 10 µM (inactive)
31 | CCOC(=O)/C=C/S(=O)(=O)c1ccc(NC(C)=O)cc1 | 4.78 µM
32 | CCOc1ccc(-c2cc(CCCC(=O)NCc3ccc(C)cc3)no2)cc1 | 5.91 µM (inactive)
33 | CC1=C(C)/C(=N\OS(=O)(=O)c2ccccc2)C=CC1=O | 2.13 µM
34 | C/C(=C\c1ccco1)C1C(C#N)=C(N)Oc2n[nH]c(-c3ccc(C)cc3)c21 (stereo unspecified) | > 10 µM (inactive)
35 | CCOC(=O)COc1ccccc1/C=C\[N+](=O)[O-] | 9.51 µM (inactive)
36 | CC(C)c1ccc(NC(=O)CSc2nc(-c3ccccc3F)nc3nc[nH]c23)cc1 | 9.99 µM (inactive)
37 | Cc1nn(Cc2c(Cl)cccc2Cl)c(C)c1NC(=O)c1cn(-c2ccccc2)nc1-c1ccccc1 | 4.8 µM
38 | CCc1cc(-c2n[nH]c(C)c2Oc2ccc(C(C)C)cc2)c(O)cc1O | 7.24 µM (inactive)
39 | O=[N+]([O-])c1cc(S(=O)(=O)C(F)(F)F)ccc1Sc1nc2ccccc2[nH]1 | 9.3 µM (inactive)
40 | N=C(N)c1c(O)n(C2CCCCC2)c(=O)n(C2CCCCC2)c1=O | 2.77 µM
41 | Cc1ccccc1CS(=O)(=O)c1nnc([C@H](CC(C)C)NC(=O)OC(C)(C)C)o1 | 4.63 µM
42 | CC(C)(C)C1C/C(=C/c2ccccn2)C(=O)/C(=C/c2ccccn2)C1 (stereo unspecified) | 0.3 µM
43 | O=C(Nc1ccccc1C(F)(F)F)c1cc(-c2ccc(O)cc2)on1 | 9.47 µM (inactive)
44 | COC(=O)c1ccc2c(c1)C(C)(C)C(/C=C/c1ccc(O)cc1)=[N+]2C | > 10 µM (inactive)
45 | Cc1ccc(NC(=O)CSc2nc3ccccc3c3nc(CCc4c(C)n[nH]c4C)nn23)cc1F | 9.71 µM (inactive)
46 | COc1cc(OC)nc(-n2ncc(Br)c(Br)c2=O)n1 | 1.93 µM
47 | COC(=O)[C@@H]1[C@@H](C(=O)OC)C2(c3ccccc3-c3ccccc32)N(c2ccc(Cl)cc2)N1C#N | 4.53 µM
48 | O=C(NCc1nc(-c2ccc(C(F)(F)F)cc2)no1)Nc1ccc(OC(F)(F)F)cc1 | 2.03 µM

Row | Compound | IC50
49 | FC(F)(F)c1nnc(-c2ccccc2)nc1Sc1ccc(Cl)cc1 | > 10 µM (inactive)
50 | CCCCC(CC)Cn1c2nc3ccccc3nc2c2c(=N)oc(C)nc21 (stereo unspecified) | 7.13 µM (inactive)
51 | CCOc1cc(S(=O)(=O)Nc2ccccc2CC)ccc1Cl | 7 µM (inactive)
52 | O=C(Nc1ccc(Cl)c(C(F)(F)F)c1)NC1CC2CCCC(C1)N2Cc1ccccc1 (stereo unspecified) | 7.84 µM (inactive)
53 | CC(=O)C1=C(c2ccc(Br)cc2)C(=O)c2ccccc2C1=O | 5.57 µM (inactive)
54 | CC(C)(C)OC(=O)CNC(=O)c1[nH]cnc1C(=O)Nc1ccc(Cl)cc1 | 4.69 µM (inactive)
55 | FC(F)(F)c1cccc(NC(=S)NC(c2ccccc2)c2ccccc2)c1 | 9.54 µM (inactive)
56 | O=C(Nc1ccc(OC(F)F)cc1)Nc1cccc(C(F)(F)F)c1 | 8.9 µM (inactive)
57 | COc1ccc(C(=O)Nc2nnc(-c3ccco3)s2)cc1 | 8.58 µM (inactive)
58 | CC(C)CCN(C(=O)Cc1ccc(Cl)c(Cl)c1)c1c(N)n(Cc2ccccc2)c(=O)[nH]c1=O | 5.74 µM (inactive)
59 | FC(F)C(F)(F)C(F)(F)C(F)(F)c1cc(-c2ccccc2)n[nH]1 | 9.67 µM (inactive)
60 | CCOc1cc(NC(=O)CCl)c(OCC)cc1NC(=O)CCl | > 10 µM (inactive)
61 | CC(=O)OC[C@]12CCC(C)=C[C@H]1O[C@@H]1[C@H](O)[C@@H](OC(C)=O)[C@@]2(C)[C@]12CO2 | < 0.16 µM (inactive)
62 | Cc1ccc2nc(-c3cc(-c4ccccc4)no3)cn2c1 | 9.74 µM (inactive)
63 | Cc1cc(Nc2cccc([N+](=O)[O-])c2)n2c(nc3ccccc32)c1C#N | 4.08 µM (inactive)
64 | Cc1ccc(OCC(=O)N/N=C/c2cn[nH]c2-c2ccc(Cl)c(Cl)c2)cc1 | 6.3 µM (inactive)
65 | O=S(=O)(C/C(=C/CO)S(=O)(=O)c1ccccc1)c1ccccc1 | > 10 µM (inactive)
66 | C=CCc1cccc(/C=N/NC(=O)CCCNc2ccc(C)cc2)c1O | 9.23 µM (inactive)
67 | CC(C)C[C@H](NC(=O)c1nc[nH]c1C(=O)NCC(=O)OC(C)(C)C)C(=O)OCc1ccccc1 | > 10 µM (inactive)
68 | Cc1ccc2[nH]c(O)c(N=NC(=O)CCc3ccccc3)c2c1Br | 4.27 µM
69 | Cc1ccc(N2C(=O)NC(=O)/C(=C\C=C\c3ccco3)C2=O)cc1 | 9.55 µM (inactive)
70 | O=C(Nc1cccc(F)c1)N(Cc1ccc(Cl)cc1)CC(O)C(F)(F)F (stereo unspecified) | 3.58 µM
71 | CCC1CCCCN1S(=O)(=O)c1ccc(C(=O)Nc2nnc(-c3ccccc3Cl)o2)cc1 (stereo unspecified) | 9.92 µM (inactive)
72 | CN1/C(=C\C=C\C2=[N+](C)c3ccc4ccccc4c3C2(C)C)C(C)(C)c2ccccc21 | 0.41 µM (inactive)

Row | Compound | IC50
73 | CN1/C(=C/C(=O)c2nc(S(C)(=O)=O)ncc2Cl)C(C)(C)c2ccccc21 | < 0.16 µM
74 | Cc1cc(C)n(-c2nc(N(c3ccccc3)c3ccccc3)nc(-n3nc(C)cc3C)n2)n1 | 9.34 µM (inactive)
75 | O=C(Nc1ccccc1)C1=C(c2ccccc2)S(=O)(=O)CCS1(=O)=O | 9.67 µM (inactive)
76 | Cc1ccccc1CS(=O)(=O)c1nnc([C@H](Cc2ccccc2)NC(=O)OC(C)(C)C)o1 | 4.01 µM
77 | CC1=C/C(=N\OS(=O)(=O)c2ccccc2)C=CC1=O | 1.43 µM
78 | Cc1nc2c(=O)n(C)c(=O)n(C)c2nc1Cl | 3.79 µM (inactive)
79 | CCOC(=O)c1cc([N+](=O)[O-])c([N+](=O)[O-])cc1NC(C)=O | 4.24 µM
80 | CCCC(NCC(O)COc1ccc(-c2ccccc2)cc1)c1ccccc1 (stereo unspecified) | 9.3 µM (inactive)
81 | O=C1c2ccc3c4c(ccc(c24)C(=O)N1c1cccc(O)c1)C(=O)N(c1cccc(O)c1)C3=O | 9.81 µM (inactive)
82 | COC(=O)c1sc(-c2ccc(C(C)(C)C)cc2)cc1NC(=O)c1ccccc1C(=O)O | 8.29 µM (inactive)
83 | Cc1cc(C2(c3ccc(O)c(C)c3)C(=O)Nc3ccccc32)ccc1O | > 10 µM (inactive)
84 | C=CS(=O)(=O)c1ccc(Oc2ccc(S(=O)(=O)C=C)cc2)cc1 | 1.7 µM
85 | N#Cc1nccnc1S(=O)(=O)c1cccs1 | 2.67 µM
86 | COc1cccc(-c2nnc(NC(=O)c3ccc(S(=O)(=O)N(CC(C)C)CC(C)C)cc3)o2)c1 | 4.13 µM
87 | CCN1CCN(Cc2ccc(NC(=O)c3ccc(C)c(NC(=O)c4c[nH]c5cc(C(F)(F)F)ccc5c4=O)c3)cc2C(F)(F)F)CC1 | 4.74 µM
88 | CC(C)(C)c1ccc(NC(=O)Nc2ccc(F)cc2)cc1 | > 10 µM (inactive)
89 | CCCCCc1c(C)nc(Nc2ccccc2)[nH]c1=O | 9.72 µM (inactive)
90 | O=C(N/N=C/c1ccccn1)c1cc(-c2ccc3ccccc3c2)n[nH]1 | > 10 µM (inactive)
91 | C=CCn1c(O)c(C(CC)=Nc2ccc(N(CC)CC)cc2)c(=O)[nH]c1=O | 2.56 µM
92 | C=C1C(=O)O[C@@H]2C[C@@H](C)[C@@H]3C4OC4C(=O)[C@@]3(C)[C@@H](O)[C@H]12 (stereo partly specified) | 9.5 µM (inactive)
93 | Oc1ccc(/C=N/Nc2nc(N3CCCCCC3)nc(N3CCCCCC3)n2)c(O)c1 | 9.82 µM (inactive)
94 | CCOC(=O)C1=C(c2ccc(OC)cc2)C(=O)c2ccccc2C1=O | 8.81 µM (inactive)
95 | Cc1cc(C)c2nc(C(F)(F)F)c(C#N)c(N)c2c1 | 8.25 µM (inactive)
96 | C/C(=N\NC(=O)COc1ccc(C(C)(C)C)cc1)c1ccc(N2CCOCC2)cc1 | 9.41 µM (inactive)
